This note sets out measurements from BindingDB's records for doi:10.1016/j.ejmech.2012.11.007 (Chungnam National University, 2013).

SMILES strings stand for the structures.

This assay can be described thus: Inhibition of IL-5 in mouse pro-B Y16 cells after 48 hrs by WST1 assay. In general terms: Formazan colour is commonly taken as a measure of viable cells.
For the compound `O=c1c(/C=C/C(O)c2ccc(C(F)(F)F)cc2)coc2cccc(OCC3CCCCC3)c12` (centres undefined), the 50% inhibitory concentration (IC50) amounted to 13.2 µM. In the case of `COc1cccc2occ(/C=C/C(=O)c3ccc(O)cc3)c(=O)c12` it was above 30 µM. In the case of `N#Cc1ccc(C(O)/C=C/c2coc3cccc(OCC4CCCCC4)c3c2=O)cc1` (centres undefined) it was 6.7 µM; in that of `Cc1ccc(C(=O)/C=C/c2coc3cccc(OCC4CCCCC4)c3c2=O)cc1`, 25.1 µM; in that of `COc1ccc(C(O)/C=C/c2coc3cccc(OCC4CCCCC4)c3c2=O)cc1` (centres undefined), 16 µM.

With `O=c1c(/C=C/C(O)c2ccc(O)cc2)coc2cccc(OCC3CCCCC3)c12` (centres undefined), half-maximal inhibition (IC50) was put at 12.5 µM. On to `O=c1c(/C=C/C(O)c2ccc(Cl)cc2)coc2cccc(OCC3CCCCC3)c12` (centres undefined), for which the IC50 came to 7 µM. In the case of `O=C(/C=C/c1coc2cccc(OCC3CCCCC3)c2c1=O)c1ccccc1` it was above 30 µM; in that of `O=c1c(/C=C/C(O)c2ccc(F)cc2)coc2cccc(OCC3CCCCC3)c12` (centres undefined), 6.4 µM; in that of `O=C(/C=C/c1coc2cccc(OCC3CCCCC3)c2c1=O)c1ccc([N+](=O)[O-])cc1`, above 30 µM. Take `O=C(/C=C/c1coc2cccc(OCC3CCCCC3)c2c1=O)c1ccc(F)cc1`: the IC50 was above 30 µM. In the case of `CC(C)(C)c1ccc(C(O)/C=C/c2coc3cccc(OCC4CCCCC4)c3c2=O)cc1` (centres undefined), the IC50 was above 30 µM.

On to `O=C(/C=C/c1coc2cccc(OCC3CCCCC3)c2c1=O)c1ccc(Cl)cc1`, for which the IC50 was above 30 µM. The figure for `N#Cc1ccc(C(=O)/C=C/c2coc3cccc(OCC4CCCCC4)c3c2=O)cc1` is above 30 µM; for `O=c1c(/C=C/C(O)c2ccc([N+](=O)[O-])cc2)coc2cccc(OCC3CCCCC3)c12` (centres undefined) it is 7 µM; for `CC(C)COc1cccc2occ(/C=C/C(O)c3ccc(O)cc3)c(=O)c12` (centres undefined) it is above 30 µM. The figure for `O=C(/C=C/c1coc2cccc(OCC3CCCCC3)c2c1=O)c1ccc(O)cc1` is 16.2 µM; for `CC(C)COc1cccc2occ(/C=C/C(=O)c3ccc(O)cc3)c(=O)c12` it is 19.1 µM; for `O=c1c(/C=C/C(O)c2ccccc2)coc2cccc(OCC3CCCCC3)c12` (centres undefined) it is 15 µM. In the case of `O=C(/C=C/c1coc2cccc(OCC3CCCCC3)c2c1=O)c1ccc(C(F)(F)F)cc1` it was above 30 µM; in that of `COc1cccc2occ(/C=C/C(O)c3ccc(O)cc3)c(=O)c12` (centres undefined), above 30 µM. As for `CC(C)(C)c1ccc(C(=O)/C=C/c2coc3cccc(OCC4CCCCC4)c3c2=O)cc1`, half-maximal inhibition (IC50) required 18.1 µM. The figure for `COc1ccc(C(=O)/C=C/c2coc3cccc(OCC4CCCCC4)c3c2=O)cc1` is above 30 µM; for `Cc1ccc(C(O)/C=C/c2coc3cccc(OCC4CCCCC4)c3c2=O)cc1` (centres undefined) it is 15 µM.

Usually IC50 stands for the concentration that inhibits the measured activity by half. A lower IC50 goes with greater potency.
